Tested on: Wistar SPF rats
Details: rat, in vivo
Method: The subacute toxicity test by oral administration was conducted using Wistar SPF rats. That is, the rats were divided into the control group (n=7) to which the athrocytosis of the usual feed is carried out, and the eucalyptus group (n=7) to which the athrocytosis of the feed which mixed the eucalyptus extract of 1 volume % with usual feed is carried out, and bred each individually. The rats of these groups were made to carry out free ingestion of feed and the potable water.
The amount of food ingested and the amount of drinking water of rats of these groups were measured every day, and weight change was measured twice per week. The test was continued for five weeks. After the test end, by collecting blood from the heart, rats were made to die and pathological changes, malformation, etc. of each organization, such as internal organs, were confirmed after dissection.

Substance: eucalyptus extract
- amount of cholesterol in liver vs control group: significant difference was not observed
- amount of drinking water vs control group: significant difference was not accepted
- amount of food ingested vs control group: significant difference was not accepted
- amount of triglyceride in liver vs control group: significant difference was not observed
- weight change vs control group: significant difference was not accepted

— patent US20030049337A1, “Composition for preventing fructose absorption” (NAGAOKA PERFUMERY CO., LTD, priority 2001, published 2003)
